In US20110262395A1, “SENSORY RECEPTORS FOR CHRONIC FATIGUE AND PAIN AND USES THEREOF” (UNIVERSITY OF UTAH RESEARCH FOUNDATION, priority 2008, published 2011):
“Also recorded” adds a separate entry of the source.

Columns and labels:
DRG neurons [1] = test: Calcium imaging of cultured DRG neurons: percent of neurons responding to applied metabolites or capsaicin; assay type: cell-based, mouse; settings: for ability to enhance metabolite responses: ATP: 1 μM
Source text: (§1) Harvesting/culturing cells/loading cells: Thirty-nine three week old (4 wells of DRG neurons plated from each mouse), C57Bl/6 mice were anesthetized with isoflurane, and euthanized by cervical dislocation. Dorsal root ganglia (DRG) from lumbar regions were removed into HBSS, treated with trypsin, washed with MEM (Invitrogen 51200-038) containing 10% FBS (Hyclone), 2.4% glucose, 1% glutamax (Invitrogen 35050-061) and 1% penicillin/streptomycin (Atlanta Biological B2110). DRG were triturated, pre-plated and incubated at 37° C. for one hour to reduce non-neuronal cells. Neurons were gently swirled and centrifuged (110×g, 5 min). Cells were removed, re-suspended and 30 μL plated onto the 4 center wells of 24-well plates coated with poly-L-lysine and laminin. A 0.5 mm thick silicone ring with a 4 mm diameter opening sealed to the surface of each well reduced the plating area in each well. Following 1 hour, wells were filled with 37° C. culture medium with 10 ng/mL GDNF (Glial Derived Neurotrophic Factor) (Preprotech 450-10). Sixteen to 23 hours after plating, cultures were loaded with Fura-2 AM (Molecular Probes F-1221) fluorescent dye for 40-60 minutes, then washed with pH 7.4 oxygenated observation medium containing no additional ATP (145 mM NaCl, 5 mM KCl, 2 mM CaCl2, 1 mM MgCl2, 1 mM Citrate, 10 mM glucose, 10 mM MES, 10 mM HEPES). The final well volume was 500 μL.
Choice and concentrations of metabolites: Because the afferent receptors in muscle have been reported to be on the outside of blood vessels supplying muscle, values obtained for muscle interstitium from experiments using cat, rat, and human for muscle contraction evoked by mild to moderate to extreme exercise were used.
Protons (pH): Values between 7.6 and 6.2 were used spanning the range found in skeletal and cardiac muscle in mammals from above resting values to those found with injury and disease.
Lactate: 1-50 mM lactate was used, a range of values that spans from rest to ischemia in muscles of humans and rats and mice.
ATP: ATP concentrations in muscle interstitium increase from 300 nM at rest to 5 μM with ischemic muscle contraction (Hellsten et al., 1998; Li et al., 2003; Li et al., 2005). These levels were used in the experiments described below. […] To allow for physiological levels of desensitization of possible P2X receptors, freshly prepared ATP at 300 nM was used for at least 30 seconds before any further increases in ATP combined with other metabolites, to establish resting conditions in DRG neurons in these experiments. […] Also used were pH 6.0 and 4.0 without additional increases in metabolites to confirm that the imaging experiments could replicate recent reports using patch-clamp techniques (Leffler et al., 2006).
(§2) Combinations of metabolites applied to mimic naturally occurring conditions: When applied in an escalating series to mimic increases in metabolites that occur with muscle exercise and ischemic muscle exercise, the metabolite values shown in Table 1 were used. The values associated with pH 7.6 are at or below those normally found at rest in the mouse. The values at 7.4 approximate those found at rest. Generally, the low metabolite values associated with pH higher than 7.0 are likely to be non-noxious, while higher metabolite values at pH 7.0 and lower may be associated with pain. These values should bracket the physiological range of metabolites found in skeletal muscle with the last two values (those associated with 6.4 and 6.2) being higher than the physiological range (Bangsbo et al., 1993; Bangsbo et al., 2001; Li et al., 2003; Li et al., 2005; Reeh and Kress, 2001; Steinhagen et al., 1976).
Di-I labeling: In some experiments, neurons were identified as innervating muscle by prior muscle labeling with Di-I. Twelve 7-9 day old mice were anesthetized by cooling. […]

ASIC3 = biological target: T1, ASIC3 (Homo sapiens, UniProt Q9UHC3); settings: cited from earlier work
T1 sequence (Q9UHC3 1-531): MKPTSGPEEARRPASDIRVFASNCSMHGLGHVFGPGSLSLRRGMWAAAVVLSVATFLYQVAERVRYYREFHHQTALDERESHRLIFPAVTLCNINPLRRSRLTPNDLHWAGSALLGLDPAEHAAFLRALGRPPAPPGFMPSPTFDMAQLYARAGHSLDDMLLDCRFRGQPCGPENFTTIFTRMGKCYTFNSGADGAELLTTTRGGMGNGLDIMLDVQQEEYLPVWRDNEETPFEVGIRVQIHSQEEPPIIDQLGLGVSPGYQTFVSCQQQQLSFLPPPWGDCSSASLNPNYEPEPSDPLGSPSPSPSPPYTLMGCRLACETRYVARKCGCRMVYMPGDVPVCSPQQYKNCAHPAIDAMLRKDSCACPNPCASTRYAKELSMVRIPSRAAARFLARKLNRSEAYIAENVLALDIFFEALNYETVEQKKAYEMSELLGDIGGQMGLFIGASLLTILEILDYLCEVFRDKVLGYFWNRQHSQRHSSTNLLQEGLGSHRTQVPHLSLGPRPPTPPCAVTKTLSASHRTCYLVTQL

DRG neurons [2] = test: Calcium imaging of cultured DRG neurons: antagonist effects on responses to increasing metabolites (protons, lactate, ATP); assay type: cell-based, mouse
Source text: as §1, §2
(§3) JYL-1422, LJO-328, A-317567, and a selected stereo isomer of A-317567 were each dissolved in 5% DMSO/95% water and a few μL of 1M HCl to a concentration of 10 mM, then quick frozen and stored at −20° C. Aliquots of antagonists were thawed and diluted to the appropriate concentrations just prior to use in the experiments. The strong buffers maintained the pH of these antagonists when mixed with metabolites.
(§4) Imaging procedure: All experiments were performed at room temperature (20-25° C.) to allow correspondence with most previous experiments using calcium imaging and patch clamp of DRG neurons. Cells were imaged using the Meta Imaging Series Metafluor program (Universal Imaging Corp). All cells identifiable as neurons based on their round shape, clear, single nucleus, were selected from a phase image of the field. At the end of each experiment, 200 nM capsaicin was applied, followed by a wash, and then applied 50 mM KCl. Capsaicin activation indicated the presence of TRPV1 receptors on neurons, and KCl ensured that recorded objects were active neurons, and established the maximal calcium response in each neuron. For some neurons the administration of capsaicin abolished the potential for responding to KCl, thus either a response to capsaicin or to KCl indicated viability of neurons, and only viable neurons were included in analyses.
For each field an average of 151+10 cells were tracked real-time. […] FIGS. 1 and 2 show traces from these graphs. […]

ASIC2 = biological target: T2, ASIC2 (Homo sapiens, UniProt Q16515); settings: read-out: IC 50 for ASIC2; cited from earlier work
T2 sequence (Q16515 1-512): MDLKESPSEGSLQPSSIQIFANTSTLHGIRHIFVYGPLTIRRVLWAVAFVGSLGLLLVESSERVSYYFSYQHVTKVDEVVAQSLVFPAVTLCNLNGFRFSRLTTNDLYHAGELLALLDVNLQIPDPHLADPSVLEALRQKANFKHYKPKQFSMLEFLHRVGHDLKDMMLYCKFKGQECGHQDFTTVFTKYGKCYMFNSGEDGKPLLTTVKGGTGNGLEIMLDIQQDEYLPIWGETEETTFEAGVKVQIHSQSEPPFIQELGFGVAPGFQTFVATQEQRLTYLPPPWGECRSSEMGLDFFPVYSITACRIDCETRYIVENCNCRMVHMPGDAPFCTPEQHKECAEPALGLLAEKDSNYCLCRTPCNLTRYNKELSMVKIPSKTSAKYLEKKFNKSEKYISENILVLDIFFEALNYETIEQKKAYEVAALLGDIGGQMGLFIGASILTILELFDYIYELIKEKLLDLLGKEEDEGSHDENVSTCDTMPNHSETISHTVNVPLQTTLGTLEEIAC

DRG neurons [3] = test: Calcium imaging of cultured DRG neurons: antagonist effects on responses to capsaicin, ATP or KCl (selectivity control); assay type: cell-based, mouse
Source text: as §1, §3, §4
For each field an average of 151+10 cells were tracked real-time. […]

ASIC1 = biological target: T3, ASIC1 (Homo sapiens, UniProt P78348); settings: read-out: IC 50 for ASIC1; cited from earlier work
T3 sequence (P78348 1-528): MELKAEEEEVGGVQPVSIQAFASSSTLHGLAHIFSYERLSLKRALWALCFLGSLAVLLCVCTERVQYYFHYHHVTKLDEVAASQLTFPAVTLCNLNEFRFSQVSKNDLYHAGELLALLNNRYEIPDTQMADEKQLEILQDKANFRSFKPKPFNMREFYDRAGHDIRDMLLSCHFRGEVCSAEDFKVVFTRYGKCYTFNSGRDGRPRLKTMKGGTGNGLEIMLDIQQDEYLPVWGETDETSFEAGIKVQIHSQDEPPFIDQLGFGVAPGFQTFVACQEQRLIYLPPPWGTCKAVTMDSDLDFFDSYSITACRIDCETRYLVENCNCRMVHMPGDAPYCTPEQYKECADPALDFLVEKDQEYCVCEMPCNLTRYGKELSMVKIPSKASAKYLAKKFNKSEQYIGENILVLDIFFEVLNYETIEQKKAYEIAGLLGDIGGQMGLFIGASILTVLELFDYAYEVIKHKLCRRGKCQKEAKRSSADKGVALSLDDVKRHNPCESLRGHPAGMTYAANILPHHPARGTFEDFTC

Nc1ncnc2c1ncn2[C@@H]1O[C@H](COP(=O)(O)OP(=O)(O)OP(=O)(O)O)[C@@H](O)[C@H]1O [ATP]
percent of DRG neurons responding (DRG neurons [1]; ATP with lactate): 4.7%
ability to enhance metabolite responses (DRG neurons [1]): capable of enhancing metabolite responses when freshly prepared
percent of DRG neurons activated (DRG neurons [1]; graded series, going from 2 μM to 5 μM): approximately 16%
percent of DRG neurons activated (DRG neurons [1]; gradually increased from resting amounts, only at concentrations higher than 2 μM): < 11%
percent of DRG neurons activated (DRG neurons [1]; increasing graded series from 300 nM, when 2 μM was reached): less than 10%
percent of DRG neurons responding (DRG neurons [1]; pH 7.0-ATP 1 μM (increasing protons with addition of ATP)): 11.2%

APETx2
inhibition of ASIC3 and ASIC3 heteromers (ASIC3): can selectively inhibit ASIC3 and ASIC3 heteromers

Nc1ncnc2c1ncn2[C@@H]1O[C@H](COP(=O)(O)OP(=O)(O)O)[C@@H](O)[C@H]1O [ADP]
ability to enhance metabolite responses (DRG neurons [1]): not capable of enhancing metabolite responses

Cc1nc(N=Nc2ccc(S(=O)(=O)O)cc2S(=O)(=O)O)c(COP(=O)(O)O)c(C=O)c1O [PPADS]
effect on responses to increasing metabolites (DRG neurons [2]; antagonist 300 μM): eliminated most responses to increasing metabolites
effect on responses to increasing metabolites (DRG neurons [2]; antagonist 200-300 μM, doses effective at all P2X receptors): eliminated nearly all responses to increasing metabolites

CC(C)C1c2cc(C3CC3c3ccc4cc(C(=N)N)ccc4c3)ccc2CCN1C (stereo not shown) [A-317567]
IC50 (ASIC3; read-out: IC 50 for ASIC3): 9.5 µM
IC50 (ASIC2): 9.1 µM
DRG neuron responses to metabolites blocked (DRG neurons [2]; antagonist 100 μM, metabolites increased as high as pH 6.6, lactate 50 mM, ATP 5): ~80%
responses to metabolites, % of the control level (DRG neurons [2]; antagonist 100 μM, p<0.0001): 23%
effect on responses to metabolites (DRG neurons [2]; antagonist 200 μM): blocked all responses to metabolites
effect on responses to capsaicin, ATP or KCl (DRG neurons [3]; any dose, applied for 10 minutes or less): caused no decrements in calcium responses evoked by capsaicin, ATP or KCl; also recorded: did not decrease responses to capsaicin, ATP, or KCl; also recorded: did not block DRG neuron capsaicin responses, KCl responses, or responses to 5 μM ATP
effect on responses to capsaicin, ATP or KCl (DRG neurons [3]; applied for more than 20 minutes): caused some decrements in these responses
IC50 (ASIC1): 2 µM

CC(O)C(=O)O (stereo not shown) [lactate]
percent of DRG neurons activated (DRG neurons [1]; 50 mM, pH 6.6): 9.5%
percent of DRG neurons activated (DRG neurons [1]; 5-15 mM combined with protons at pH 7.3-6.8): less than 4%
DRG neuron responses (DRG neurons [1]; alone, 1-50 mM, pH 7.4): caused no increases in DRG neuron responses; also recorded: activated very few mouse DRG neurons
total percent of DRG neurons activated (DRG neurons [1]; lactate plus protons, all levels of metabolites included): more than 10%
